Source: the supplement of paper PMC10307832

Assays:
Experiment in all cases: relative viability (nuclei count vs DMSO), 5 days (fraction); higher = more cells survive
[1] = compound: COC1=CC=C(C=C1)COC2=C(C=C(C=C2)CC3=CN=C(N=C3N)N)OC [GW-2580] + O=C(CCCCCCC(=O)Nc1ccccc1)NO [Vorinostat] (partner 1 µM)
Procedure, shortened: (§1)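 Five library-drug doses in √10 steps were combined with a fixed anchor-drug dose, or a single drug was given alone, by pin tool to lung cancer cell lines in 1536-well plates the day after seeding. Nuclei were stained and counted after 5 days. Relative viability is the nuclei count in treated wells over that in vehicle wells, taken as the median of duplicate plates.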

[2] = compound: Cc1cnc(Nc2ccc(OCCN3CCCC3)cc2)nc1Nc1cccc(S(=O)(=O)NC(C)(C)C)c1 [Fedratinib] + CCNC(=O)c1noc(-c2cc(C(C)C)c(O)cc2O)c1-c1ccc(CN2CCOCC2)cc1 [Luminespib] (partner 0.01 µM)
Procedure, shortened: as §1

[3] = compound: Cc1cnc(Nc2ccc(OCCN3CCCC3)cc2)nc1Nc1cccc(S(=O)(=O)NC(C)(C)C)c1 [Fedratinib] + O=C(c1cc(Cc2n[nH]c(=O)c3ccccc23)ccc1F)N1CCN(C(=O)C2CC2)CC1 [Olaparib] (partner 8 µM)
Procedure, shortened: as §1

[4] = compound: Cc1cnc(Nc2ccc(OCCN3CCCC3)cc2)nc1Nc1cccc(S(=O)(=O)NC(C)(C)C)c1 [Fedratinib] + Cc1cc(Nc2cc(N3CCN(C)CC3)nc(Sc3ccc(NC(=O)C4CC4)cc3)n2)n[nH]1 [Tozasertib] (partner 0.1 µM)
Procedure, shortened: as §1

[5] = compound: Cc1cnc(Nc2ccc(OCCN3CCCC3)cc2)nc1Nc1cccc(S(=O)(=O)NC(C)(C)C)c1 [Fedratinib] + C[C@]1(O)C[C@@H](c2nc(-c3ccc4ccc(-c5ccccc5)nc4c3)c3c(N)nccn32)C1 [Linsitinib] (partner 1 µM)
Procedure, shortened: as §1

[6] = compound: Cc1cnc(Nc2ccc(OCCN3CCCC3)cc2)nc1Nc1cccc(S(=O)(=O)NC(C)(C)C)c1 [Fedratinib] + COc1cccc2cc(-c3nc([C@H]4CC[C@H](C(=O)O)CC4)n4ncnc(N)c34)[nH]c12 [OSI-027] (partner 0.5 µM)
Procedure, shortened: as §1

Cell Line	relative viability ([1]; first compound 0.08 µM)	relative viability ([1]; first compound 0.8 µM)	relative viability ([1]; first compound 2.53 µM)	relative viability ([1]; first compound 8 µM)	relative viability ([2]; first compound 0.1 µM)	relative viability ([2]; first compound 0.3162 µM)	relative viability ([2]; first compound 1 µM)	relative viability ([3]; first compound 0.1 µM)	relative viability ([3]; first compound 0.3162 µM)	relative viability ([3]; first compound 1 µM)	relative viability ([4]; first compound 0.1 µM)	relative viability ([4]; first compound 0.3162 µM)	relative viability ([4]; first compound 1 µM)	relative viability ([5]; first compound 0.1 µM)	relative viability ([5]; first compound 0.3162 µM)	relative viability ([5]; first compound 1 µM)	relative viability ([6]; first compound 0.1 µM)	relative viability ([6]; first compound 0.3162 µM)	relative viability ([6]; first compound 1 µM)
RERF-LC-KJ	0.663	0.792	0.629	0.684	1.13	1.24	1.17	0.895	0.847	0.805	0.292	0.38	0.347	0.805	0.906	0.855	0.533	0.602	0.48
NCI-H1650	0.541	0.901	0.457	0.586	–	0.186	0.2	0.835	0.726	0.674	–	0.408	0.335	–	–	–	–	0.69	0.515
BEN	0.587	0.565	0.559	0.633	0.312	0.248	0.263	1.07	1.01	0.972	0.507	0.464	0.45	0.779	0.914	0.852	0.267	0.297	0.27
EMC-BAC-2	0.418	0.733	–	0.376	1.27	1.12	1.18	0.493	0.455	0.472	0.201	0.268	0.227	0.802	0.832	0.796	0.323	0.387	0.351
LU99A	0.646	0.522	0.435	0.528	0.271	0.302	0.216	0.262	0.264	0.231	0.209	0.291	0.276	0.521	0.513	0.48	0.254	0.328	0.272
ABC-1	0.972	1.17	1.06	0.98	0.415	0.655	0.607	0.657	0.984	0.822	0.179	0.146	0.138	0.625	0.859	0.713	0.607	0.467	0.448
NCI-H2170	0.932	0.903	0.64	0.775	0.651	0.677	0.648	0.63	0.581	0.562	0.481	0.743	0.599	–	–	–	0.688	0.723	0.596
NCI-H1299	–	–	–	–	–	–	–	0.955	0.881	0.904	–	–	–	0.946	0.96	0.994	–	–	–
EBC-1	–	–	–	–	–	–	–	0.609	0.654	0.551	–	–	–	0.764	0.937	0.814	–	–	–
NCI-H2347	0.619	0.621	0.549	0.575	0.33	0.401	0.59	0.551	0.58	0.596	0.368	0.602	0.483	0.871	0.922	0.878	0.292	0.428	0.497
NCI-H1993	0.993	0.887	0.661	0.868	0.679	0.85	1.1	0.949	1.01	0.839	0.58	0.575	0.596	0.706	0.718	0.682	0.519	0.522	0.524
NCI-H322M	0.843	0.996	0.893	0.903	0.59	0.849	0.49	0.861	0.772	0.643	0.52	0.447	0.333	0.95	0.939	0.799	0.548	0.566	0.462
NCI-H1648	0.761	–	0.541	0.496	–	–	–	0.655	0.59	0.691	0.409	0.567	0.422	–	–	–	0.221	0.263	0.269
NCI-H1792	–	–	–	–	0.231	0.419	0.362	0.599	0.402	0.282	–	–	–	0.611	0.547	0.542	0.607	0.808	0.748
ChaGo-K-1	0.743	0.726	0.768	0.794	0.61	0.548	0.561	0.469	0.402	0.391	0.213	0.245	0.217	–	–	–	0.431	0.577	0.504
A549	–	–	–	–	–	–	–	0.391	0.269	0.354	–	–	–	0.56	0.539	0.601	–	–	–
NCI-H1563	–	–	–	–	0.472	0.504	0.516	–	–	–	–	–	–	1.16	1.18	1.16	0.742	0.812	0.754
NCI-H522	0.976	0.862	0.861	0.986	1.14	1.21	1.14	0.655	0.643	0.615	0.527	0.514	0.573	–	–	–	0.629	0.825	0.566
HCC-78	0.461	0.441	0.389	0.39	–	–	–	0.847	0.87	0.827	0.402	0.36	0.392	0.427	–	0.49	0.366	0.381	0.362
IA-LM	–	1.21	0.851	1.07	–	–	–	0.829	0.751	0.819	–	–	–	0.547	0.546	0.786	–	–	–
NCI-H1703	–	–	–	–	–	–	–	–	0.359	0.291	–	–	–	–	0.98	0.615	–	–	–
SW 900	0.53	0.517	0.419	0.528	0.147	0.171	0.167	0.95	0.887	0.695	0.358	0.502	0.434	–	–	–	0.522	0.539	0.35
